In publication PMC5698592 (British Journal of Clinical Pharmacology, 2017):

Legend:
[1] = Phase I single-dose pharmacokinetics, plasma tramadol, M1 and celecoxib; type: in vivo, human; conditions: for AUC(0-inf): human, plasma, po, 100 mg
[2] = Phase I safety assessment; type: in vivo, human; conditions: fasted, healthy subjects; for Number of subjects who reported AEs / Number of subjects with AEs considered to be treatment‐related / Subjects who reported AEs / Subjects with AEs considered to be treatment‐related: after single oral dose of each treatment; for Abdominal pain, number of events / Abdominal pain, number of subjects / Dizziness, number of events / Dizziness, number of subjects / Dysphonia, number of events / Dysphonia, number of subjects / Euphoric mood, number of events / Euphoric mood, number of subjects / Fatigue, number of events / Fatigue, number of subjects / Feeling abnormal, number of events / Feeling abnormal, number of subjects / Headache, number of events / Headache, number of subjects / Nasal congestion, number of events / Nasal congestion, number of subjects / Nausea, number of events / Nausea, number of subjects / Rash, number of events / Rash, number of subjects / Rhinitis, number of events / Rhinitis, number of subjects / Rhinorrhoea, number of events / Rhinorrhoea, number of subjects / Somnolence, number of events / Somnolence, number of subjects / Vessel puncture site pain, number of events / Vessel puncture site pain, number of subjects / Vessel puncture site reaction, number of events / Vessel puncture site reaction, number of subjects: single oral dose
[3] = cited from earlier work
[4] = tramadol administered alone in its conventional form; cited from earlier work
[5] = after use of IR tramadol; cited from earlier work
mu‐opioid receptor = conditions: compared with tramadol itself; cited from earlier work
[6] = celecoxib alone vs. tramadol + celecoxib

Question: For Cc1ccc(-c2cc(C(F)(F)F)nn2-c2ccc(S(N)(=O)=O)cc2)cc1 [celecoxib], which “Ratio of geometric LS means (90% CI), celecoxib AUC τ, Treatment 3 vs. Treatment 4” value [1, 6] is on record?
Answer: 110.39 (105.68–115.32) %

Question: And the “Ratio of geometric LS means (90% CI), celecoxib AUC ∞, Treatment 3 vs. Treatment 4” value [1, 6]?
Answer: 103.64 (99.37–108.09) %

Question: What about the “Ratio of geometric LS means (90% CI), celecoxib C max, Treatment 3 vs. Treatment 4” value [1, 6] of the same molecule?
Answer: 163.92 (146.56–183.35) %

Question: What about the AUC(0-inf) [1] of the same molecule?
Answer: 3200 ng·h/mL

Question: And the “Number of subjects who reported AEs” value [2]?
Answer: 12

Question: What about the “Number of subjects with AEs considered to be treatment‐related” value [2] of the same molecule?
Answer: 8

Question: What about the “Subjects who reported AEs” value [2] of the same molecule?
Answer: 34.3%

Question: And the “Subjects with AEs considered to be treatment‐related” value [2]?
Answer: 22.9%

Question: And the “Abdominal pain, number of events” value [2]?
Answer: 0

Question: And the “Abdominal pain, number of subjects” value [2]?
Answer: 0

Question: What about the “Dizziness, number of events” value [2] of the same molecule?
Answer: 1 / 1

Question: What about the “Dizziness, number of subjects” value [2] of the same molecule?
Answer: 1 / 1

Question: And the “Dysphonia, number of events” value [2]?
Answer: 1 / 1

Question: What about the “Dysphonia, number of subjects” value [2] of the same molecule?
Answer: 1 / 1

Question: And the “Euphoric mood, number of events” value [2]?
Answer: 0

Question: What about the “Euphoric mood, number of subjects” value [2] of the same molecule?
Answer: 0

Question: What about the “Fatigue, number of events” value [2] of the same molecule?
Answer: 0

Question: And the “Fatigue, number of subjects” value [2]?
Answer: 0

Question: And the “Feeling abnormal, number of events” value [2]?
Answer: 0

Question: And the “Feeling abnormal, number of subjects” value [2]?
Answer: 0

Question: And the “Headache, number of events” value [2]?
Answer: 1 / 1

Question: And the “Headache, number of subjects” value [2]?
Answer: 1 / 1

Question: What about the “Nasal congestion, number of events” value [2] of the same molecule?
Answer: 1 / 1

Question: And the “Nasal congestion, number of subjects” value [2]?
Answer: 1 / 1

Question: What about the “Nausea, number of events” value [2] of the same molecule?
Answer: 0

Question: What about the “Nausea, number of subjects” value [2] of the same molecule?
Answer: 0

Question: And the “Rash, number of events” value [2]?
Answer: 1 / 1

Question: And the “Rash, number of subjects” value [2]?
Answer: 1 / 1

Question: And the “Rhinitis, number of events” value [2]?
Answer: 1 / 1

Question: What about the “Rhinitis, number of subjects” value [2] of the same molecule?
Answer: 1 / 1

Question: What about the “Rhinorrhoea, number of events” value [2] of the same molecule?
Answer: 1 / 1

Question: What about the “Rhinorrhoea, number of subjects” value [2] of the same molecule?
Answer: 1 / 1

Question: And the “Somnolence, number of events” value [2]?
Answer: 5 / 5

Question: What about the “Somnolence, number of subjects” value [2] of the same molecule?
Answer: 5 / 5

Question: What about the “Vessel puncture site pain, number of events” value [2] of the same molecule?
Answer: 2 / 2

Question: What about the “Vessel puncture site pain, number of subjects” value [2] of the same molecule?
Answer: 2 / 2

Question: And the “Vessel puncture site reaction, number of events” value [2]?
Answer: 1 / 1

Question: What about the “Vessel puncture site reaction, number of subjects” value [2] of the same molecule?
Answer: 1 / 1

Question: And the “time to peak plasma concentrations” value ([3]; after administration of commercially available formulation)?
Answer: 2 to 3 h

Question: What about the “elimination half‐life” value ([3]; commercially available formulation) of the same molecule?
Answer: 8 to 12 h

Question: For COc1cccc(C2(O)CCCCC2CN(C)C)c1 (stereo not drawn) [tramadol], which AUC(0-inf) [1] is on record?
Answer: 3060 ng·h/mL

Question: And the “Number of subjects who reported AEs” value [2]?
Answer: 14

Question: And the “Number of subjects with AEs considered to be treatment‐related” value [2]?
Answer: 14

Question: What about the “Subjects who reported AEs” value [2] of the same molecule?
Answer: 40.0%

Question: What about the “Subjects with AEs considered to be treatment‐related” value [2] of the same molecule?
Answer: 40.0%

Question: What about the “Abdominal pain, number of events” value [2] of the same molecule?
Answer: 2 / 2

Question: And the “Abdominal pain, number of subjects” value [2]?
Answer: 2 / 2

Question: What about the “Dizziness, number of events” value [2] of the same molecule?
Answer: 4 / 4

Question: And the “Dizziness, number of subjects” value [2]?
Answer: 4 / 4

Question: What about the “Dysphonia, number of events” value [2] of the same molecule?
Answer: 1 / 1

Question: What about the “Dysphonia, number of subjects” value [2] of the same molecule?
Answer: 1 / 1

Question: What about the “Euphoric mood, number of events” value [2] of the same molecule?
Answer: 2 / 2

Question: What about the “Euphoric mood, number of subjects” value [2] of the same molecule?
Answer: 2 / 2

Question: And the “Fatigue, number of events” value [2]?
Answer: 2 / 2

Question: And the “Fatigue, number of subjects” value [2]?
Answer: 2 / 2

Question: What about the “Feeling abnormal, number of events” value [2] of the same molecule?
Answer: 1 / 1

Question: What about the “Feeling abnormal, number of subjects” value [2] of the same molecule?
Answer: 1 / 1

Question: What about the “Headache, number of events” value [2] of the same molecule?
Answer: 1 / 1

Question: And the “Headache, number of subjects” value [2]?
Answer: 1 / 1

Question: What about the “Nasal congestion, number of events” value [2] of the same molecule?
Answer: 1 / 1

Question: And the “Nasal congestion, number of subjects” value [2]?
Answer: 1 / 1

Question: What about the “Nausea, number of events” value [2] of the same molecule?
Answer: 6

Question: And the “Nausea, number of subjects” value [2]?
Answer: 4

Question: And the “Rash, number of events” value [2]?
Answer: 0

Question: What about the “Rash, number of subjects” value [2] of the same molecule?
Answer: 0

Question: What about the “Rhinitis, number of events” value [2] of the same molecule?
Answer: 0

Question: And the “Rhinitis, number of subjects” value [2]?
Answer: 0

Question: And the “Rhinorrhoea, number of events” value [2]?
Answer: 0

Question: And the “Rhinorrhoea, number of subjects” value [2]?
Answer: 0

Question: What about the “Somnolence, number of events” value [2] of the same molecule?
Answer: 10 / 10

Question: And the “Somnolence, number of subjects” value [2]?
Answer: 10 / 10

Question: And the “Vessel puncture site pain, number of events” value [2]?
Answer: 0

Question: What about the “Vessel puncture site pain, number of subjects” value [2] of the same molecule?
Answer: 0

Question: And the “Vessel puncture site reaction, number of events” value [2]?
Answer: 1 / 1

Question: What about the “Vessel puncture site reaction, number of subjects” value [2] of the same molecule?
Answer: 1 / 1

Question: And the “elimination half‐life (T ½el)” value [4]?
Answer: 5 to 6 h

Question: And the “subjects affected by the most common AEs (nausea and dizziness)” value [5]?
Answer: > 10%

Question: For (+)‐O‐desmethyl‐tramadol [M1], which “affinity for the mu‐opioid receptor” value (mu‐opioid receptor) is on record?
Answer: much greater affinity
